This is an account of results in ChEMBL document CHEMBL3393039, “Anthranilic acid derivatives as nuclear receptor modulators--development of novel PPAR selective and dual PPAR/FXR ligands” (Bioorg Med Chem, 2015).

Data set [1] can be described thus: Aqueous solubility of the compound. The class given is physicochemical. The note with it: aqueous medium (not specified further).
The nature of data set [2]: Metabolic stability in Sprague-Dawley rat liver microsomes assessed as parent compound remaining at 10 uM measured after 15 mins in presence of NADPH regenerating system by HPLC method (reference value: 97.6 +/- 0.8%). The class given is ADME. The note with it: read-out: Stability. (Liver microsomes are vesicles of endoplasmic reticulum, rich in cytochrome P450 enzymes.)

Data set [3] in a line: Metabolic stability in Sprague-Dawley rat liver microsomes assessed as parent compound remaining at 10 uM measured after 30 mins in presence of NADPH regenerating system by HPLC method (reference value: 97.6 +/- 0.8%). The class given is ADME. The note with it: read-out: Stability.
A short description of data set [4]: Metabolic stability in Sprague-Dawley rat liver microsomes assessed as parent compound remaining at 10 uM measured after 60 mins in presence of NADPH regenerating system by HPLC method (reference value: 97.6 +/- 0.8%). The note with it: read-out: Stability. The class given is ADME.
Data set [5] addresses PPAR delta/gamma (Homo sapiens) (UniProt P37231+Q03181). The experiment in a line: Selectivity index, ratio of EC50 for Gal4-tagged PPARgamma ligand binding domain (unknown origin) to EC50 for Gal4-tagged PPARdelta ligand binding domain (unknown origin).
Data set [6] deals with T1, Peroxisome proliferator-activated receptor alpha (Homo sapiens, UniProt Q07869).
T1 sequence (Q07869 whole entry): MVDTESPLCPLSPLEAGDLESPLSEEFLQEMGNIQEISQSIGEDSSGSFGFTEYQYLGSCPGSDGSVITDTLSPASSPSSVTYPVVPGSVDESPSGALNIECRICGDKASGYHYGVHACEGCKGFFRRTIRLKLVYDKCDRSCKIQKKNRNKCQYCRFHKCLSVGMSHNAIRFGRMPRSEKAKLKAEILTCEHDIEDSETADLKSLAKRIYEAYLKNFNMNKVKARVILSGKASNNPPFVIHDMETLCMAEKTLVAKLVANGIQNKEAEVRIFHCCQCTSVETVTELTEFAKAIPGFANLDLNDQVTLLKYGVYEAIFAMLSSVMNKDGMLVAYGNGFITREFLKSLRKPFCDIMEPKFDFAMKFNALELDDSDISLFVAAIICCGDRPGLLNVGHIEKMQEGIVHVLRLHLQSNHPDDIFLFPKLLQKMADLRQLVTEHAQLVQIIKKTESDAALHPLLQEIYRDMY
Briefly: Transactivation of Gal4-tagged PPARalpha ligand binding domain (unknown origin) expressed in COS7 cells measured after overnight incubation by luciferase reporter gene assay. The class given is cell-based, COS-7. For orientation: In a reporter assay the amount or activity of a reporter protein is the signal.

Data set [7] addresses T2, Peroxisome proliferator-activated receptor gamma (Homo sapiens, UniProt P37231).
T2 sequence (P37231 whole entry): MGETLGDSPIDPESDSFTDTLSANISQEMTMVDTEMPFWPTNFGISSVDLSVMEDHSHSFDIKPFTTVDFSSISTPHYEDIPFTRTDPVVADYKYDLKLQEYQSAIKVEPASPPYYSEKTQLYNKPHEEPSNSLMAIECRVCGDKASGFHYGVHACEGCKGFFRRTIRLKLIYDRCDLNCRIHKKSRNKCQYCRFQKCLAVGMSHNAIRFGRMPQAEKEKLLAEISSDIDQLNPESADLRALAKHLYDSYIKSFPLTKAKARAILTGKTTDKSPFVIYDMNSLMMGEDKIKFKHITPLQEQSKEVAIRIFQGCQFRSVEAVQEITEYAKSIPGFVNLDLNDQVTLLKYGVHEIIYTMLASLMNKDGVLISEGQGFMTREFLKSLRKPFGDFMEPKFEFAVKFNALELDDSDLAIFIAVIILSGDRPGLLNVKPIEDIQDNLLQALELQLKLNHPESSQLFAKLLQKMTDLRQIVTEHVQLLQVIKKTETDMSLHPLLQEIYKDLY
The experiment in a line: Transactivation of Gal4-tagged PPARgamma ligand binding domain (unknown origin) expressed in COS7 cells measured after overnight incubation by luciferase reporter gene assay. Format: cell-based, COS-7.

Data set [8] has as its target T3, Peroxisome proliferator-activated receptor gamma (Homo sapiens) (UniProt P37231).
T3 sequence (whole entry): T2 sequence (P37231 whole entry)
Briefly: Transactivation of Gal4-tagged PPARgamma ligand binding domain (unknown origin) expressed in COS7 cells measured after overnight incubation by luciferase reporter gene assay relative to piaglitazone. The class given is cell-based. The note with it: Chlorocebus aethiops; COS-7.

The target in data set [9] is T4, Peroxisome proliferator-activated receptor delta (Homo sapiens, UniProt Q03181).
T4 sequence (Q03181 whole entry): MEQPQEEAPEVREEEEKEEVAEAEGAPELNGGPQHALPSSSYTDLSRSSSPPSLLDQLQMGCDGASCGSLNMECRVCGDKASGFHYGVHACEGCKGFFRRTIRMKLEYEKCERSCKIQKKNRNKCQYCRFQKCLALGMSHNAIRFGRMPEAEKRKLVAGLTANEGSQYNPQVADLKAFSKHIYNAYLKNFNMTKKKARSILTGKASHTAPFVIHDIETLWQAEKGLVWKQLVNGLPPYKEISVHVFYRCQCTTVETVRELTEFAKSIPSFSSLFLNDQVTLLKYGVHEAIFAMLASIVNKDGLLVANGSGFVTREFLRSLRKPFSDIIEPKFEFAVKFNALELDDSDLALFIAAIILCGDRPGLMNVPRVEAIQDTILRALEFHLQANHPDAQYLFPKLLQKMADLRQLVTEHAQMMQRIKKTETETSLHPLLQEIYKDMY
The experiment in a line: Transactivation of Gal4-tagged PPARdelta ligand binding domain (unknown origin) expressed in COS7 cells measured after overnight incubation by luciferase reporter gene assay. Format: cell-based, COS-7.

Data set [10] deals with T5, Peroxisome proliferator-activated receptor delta (Homo sapiens) (UniProt Q03181).
T5 sequence (whole entry): T4 sequence (Q03181 whole entry)
Briefly: Transactivation of Gal4-tagged PPARdelta ligand binding domain (unknown origin) expressed in COS7 cells measured after overnight incubation by luciferase reporter gene assay relative to L165,041. Format: cell-based. The note with it: Chlorocebus aethiops; COS-7.

In data set [11] the target is T6, Bile acid receptor (Homo sapiens) (UniProt Q96RI1).
T6 sequence (whole entry): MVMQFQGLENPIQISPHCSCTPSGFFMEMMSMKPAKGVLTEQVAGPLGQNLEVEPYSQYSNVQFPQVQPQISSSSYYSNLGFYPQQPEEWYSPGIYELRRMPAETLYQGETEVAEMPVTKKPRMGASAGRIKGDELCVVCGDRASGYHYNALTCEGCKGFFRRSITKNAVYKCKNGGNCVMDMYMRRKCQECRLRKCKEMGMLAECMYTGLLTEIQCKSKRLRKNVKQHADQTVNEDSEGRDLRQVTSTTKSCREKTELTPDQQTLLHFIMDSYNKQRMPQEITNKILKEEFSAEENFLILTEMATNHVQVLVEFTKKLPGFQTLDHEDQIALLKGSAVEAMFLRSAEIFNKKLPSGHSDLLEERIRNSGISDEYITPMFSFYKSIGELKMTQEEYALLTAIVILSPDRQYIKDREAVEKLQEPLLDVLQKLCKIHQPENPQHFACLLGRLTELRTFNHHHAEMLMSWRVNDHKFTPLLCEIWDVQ
The experiment in a line: Transactivation of human FXR expressed in human HeLa cells incubated for 24 hrs by luciferase reporter gene assay relative to GW4064. The class given is cell-based.

For data set [12], the species on record is Homo sapiens. Briefly: Selectivity index, ratio of EC50 for Gal4-tagged PPARalpha ligand binding domain (unknown origin) to EC50 for Gal4-tagged PPARdelta ligand binding domain (unknown origin).
Data set [13] can be described thus: Antiproliferative activity against human HepG2 cells assessed as cell viability at 5 uM after 48 hrs by WST1 assay (reference value: 100%). Format: cell-based. The note with it: read-out: Activity. (In general: Tetrazolium dyes change colour on reduction, which living cells bring about.)
A short description of data set [14]: Antiproliferative activity against human HepG2 cells assessed as cell viability at 10 uM after 48 hrs by WST1 assay (reference value: 100%). Format: cell-based. The note with it: read-out: Activity.
Data set [15] in a line: Antiproliferative activity against human HepG2 cells assessed as cell viability at 50 uM after 48 hrs by WST1 assay (reference value: 100%). The class given is cell-based. The note with it: read-out: Activity.
Data set [16] in a line: Cytotoxic activity against human HepG2 cells assessed as LDH release at 5 uM after 48 hrs by LDH release assay (reference value: 100%).
Data set [17] is described as follows: Cytotoxic activity against human HepG2 cells assessed as LDH release at 10 uM after 48 hrs by LDH release assay (reference value: 100%).
Data set [18] in a line: Cytotoxic activity against human HepG2 cells assessed as LDH release at 30 uM after 48 hrs by LDH release assay (reference value: 100%).

Each structure is given as a SMILES string. ≈ marks a conversion by molar mass, not a printed value.

For `O=C(O)Cc1cccc(NC(=O)c2ccccc2NC(=O)c2ccc3ccccc3c2)c1`, the concentration in solution in data set [1] (solubility) came to 6 µM (≈ 2.55 µg/mL). In addition, the remaining at 0.25 h, 10 µM in data set [2] stood at 91.4%. The remaining at 0.5 h, 10 µM in data set [3] came out at 82.3%. Also, the remaining at 1 h, 10 µM in data set [4] came to 80.5%. For the same compound, the Ratio EC50 in [5] was 13; in data set [12] it was 11. In addition, the figures for the 50% effective concentration (EC50) in data set [6], in [7] and in data set [9] were 14.4 µM, 18 µM and 1.3 µM, respectively. Further, the max activation amounted to 335% in data set [8], 147% in data set [10] and 20.9% in [11]. Also, in data set [13], the viability at 48 h, 5 µM worked out at 99.5%. In addition, the viability at 48 h, 10 µM in [14] was 115%. Besides, the viability at 48 h, 50 µM in data set [15] was 89.3%. Also, in data set [16], the LDH release (% cytotoxicity) at 48 h, 5 µM is -2.4%. Further, the LDH release (% cytotoxicity) at 48 h, 10 µM in data set [17] amounted to 0.3%. In addition, in [18], the LDH release (% cytotoxicity) at 48 h, 30 µM worked out at 23.3%.
